In patent US20140221354A1, “IMIDAZO [1,2-a]PYRIDINE COMPOUNDS FOR USE IN THERAPY” (EMBLEM Technology Transfer GmbH, priority 2011, published 2014):

Test system: CellSensor® HRE-bla HCT-116 stably transfected reporter cell line
Test: HIF/HRE reporter assay
Assay type: cell-based
Details: Homo sapiens, inhibition of activated HIF signaling response, hypoxic conditions induced with deferoxamine (DFO), 24 h incubation, blue/green emission ratio, read-out: Evaluation
Procedure: Inhibition of an activated HIF signaling response under chemically-induced hypoxic conditions due to compound treatment was determined using the CellSensor® HRE-bla HCT-116 stably transfected reporter cell line from Invitrogen according to the manufacturer's instructions.
Cells were maintained as described previously and seeded into 384-well, clear-bottom plates (Corning 3712) at 15000 cells/well in 32 μl assay medium (Opti-MEM [Invitrogen], 0.5% FBS, 100 U/ml penicillin, 100 μg/ml streptomycin, 0.1 mM non-essential amino acids [NEAA], 1 mM sodium pyruvate, 5 mM HEPES [pH 7.3]). Following a 2 h incubation period, compounds (4 μl) were subsequently added to the cells at 10× concentrations in 5% DMSO and incubated under normal conditions for 30 min. To induce hypoxic conditions, 4 μl of a 2 mM deferoxamine (DFO) solution was added to the cells followed by 24 h incubation under standard assay conditions (as described). Control wells included wells containing only medium (no cells) and wells treated with 0.5% DMSO instead of compound.
Prior to the readout, the Substrate Loading Solution was prepared as described in the manufacturer's protocol and 10 μl added to each well. Following a further 2 h incubation period at room temperature and in the dark, fluorescence was measured at two wavelengths (blue channel: ex. 409 nm, em. 460 nm; green channel: ex. 409 nm, em. 530 nm) on a PerkinElmer Envision HTS. For the analysis, the average signal of the cell-free wells at 460 nm and 530 nm was first subtracted from the blue and green channel data, respectively. The blue/green emission ratios were then calculated for each well, dividing the background-corrected blue emission values by the background-corrected green emission values. […] values were determined from these ratios using GraphPad Prism (Prism 5, GraphPad software, Inc.).

Structure (SMILES) | EC50 [nM]
Cc1ccc(-c2nc3ccc(-c4ccccc4)cn3c2CN2CCCNCC2)cc1 [Example 17, 3-((1,4-diazepan-1-yl)methyl)-6-phenyl-2-(p-tolyl)imidazo[1,2-a]pyridine] | < 500
COc1ccc(-c2nc3ccc(-c4ccccc4)cn3c2CN2CCCNCC2)cc1 [Example 18, 3-((1,4-diazepan-1-yl)methyl)-2-(4-methoxyphenyl)-6-phenylimidazo[1,2-a]pyridine] | < 500
c1ccc(-c2ccc3nc(-c4ccccc4)c(CN4CCCNCC4)n3c2)cc1 [Example 19, 3-((1,4-diazepan-1-yl)methyl)-2,6-diphenylimidazo[1,2-a]pyridine] | 500 to 1000
N#Cc1csc(-c2nc3ccc(-c4ccccc4)cn3c2CN2CCCNCC2)c1 [Example 20, 5-(3-((1,4-diazepan-1-yl)methyl)-6-phenylimidazo[1,2-a]pyridin-2-yl)thiophene-3-carbonitrile] | < 500
N#Cc1ccc(-c2nc3ccc(-c4ccccc4)cn3c2CN2CCCNCC2)s1 [Example 21, 5-(3-((1,4-diazepan-1-yl)methyl)-6-phenylimidazo[1,2-a]pyridin-2-yl)thiophene-2-carbonitrile] | < 500
N#Cc1cccc(-c2nc3ccc(-c4ccccc4)cn3c2CN2CCCNCC2)c1 [Example 22, 3-(3-((1,4-diazepan-1-yl)methyl)-6-phenylimidazo[1,2-a]pyridin-2-yl)benzonitrile] | < 500
Cc1ccc(-c2ccc3nc(-c4ccc(C#N)cc4)c(CN4CCCNCC4)n3c2)cc1 [Example 23, 4-(3-((1,4-diazepan-1-yl)methyl)-6-(p-tolyl)imidazo[1,2-a]pyridin-2-yl)benzonitrile] | < 500
Cc1cccc(-c2ccc3nc(-c4ccc(C#N)cc4)c(CN4CCCNCC4)n3c2)c1 [Example 24, 4-(3-((1,4-diazepan-1-yl)methyl)-6-(m-tolyl)imidazo[1,2-a]pyridin-2-yl)benzonitrile] | < 500
Cc1ccccc1-c1ccc2nc(-c3ccc(C#N)cc3)c(CN3CCCNCC3)n2c1 [Example 25, 4-(3-((1,4-diazepan-1-yl)methyl)-6-(o-tolyl)imidazo[1,2-a]pyridin-2-yl)benzonitrile] | < 500
N#Cc1ccc(-c2nc3ccc(-c4cncnc4)cn3c2CN2CCCNCC2)cc1 [Example 26, 4-(3-((1,4-diazepan-1-yl)methyl)-6-(pyrimidin-5-yl)imidazo[1,2-a]pyridin-2-yl)benzonitrile] | > 1000
N#Cc1ccc(-c2nc3ccc(-c4ccncc4)cn3c2CN2CCCNCC2)cc1 [Example 27, 4-(3-((1,4-diazepan-1-yl)methyl)-6-(pyridin-4-yl)imidazo[1,2-a]pyridin-2-yl)benzonitrile] | < 500
Cc1cc(-c2ccc3nc(-c4ccc(C#N)cc4)c(CN4CCCNCC4)n3c2)ccn1 [Example 28, 4-(3-((1,4-diazepan-1-yl)methyl)-6-(2-methylpyridin-4-yl)imidazo[1,2-a]pyridin-2-yl)benzonitrile] | 500 to 1000
N#Cc1ccc(-c2nc3ccc(-c4cccnc4)cn3c2CN2CCCNCC2)cc1 [Example 29, 4-(3-((1,4-diazepan-1-yl)methyl)-6-(pyridin-3-yl)imidazo[1,2-a]pyridin-2-yl)benzonitrile] | > 1000
COc1ccc(-c2nc3ccc(-c4ccccc4)cn3c2CN2CCNC(=O)C2)cc1 [Example 30, 4-((2-(4-methoxyphenyl)-6-phenylimidazo[1,2-a]pyridin-3-yl)methyl)piperazin-2-one] | > 1000
CN1CCCN(Cc2c(-c3ccc(Cl)cc3)nc3ccc(-c4ccccc4)cn23)CC1 [Example 31, 2-(4-chlorophenyl)-3-((4-methyl-1,4-diazepan-1-yl)methyl)-6-phenylimidazo[1,2-a]pyridine] | < 500
O=C1CN(Cc2c(-c3ccc(Cl)cc3)nc3ccc(-c4ccccc4)cn23)CCN1 [Example 32, 4-((2-(4-chlorophenyl)-6-phenylimidazo[1,2-a]pyridin-3-yl)methyl)piperazin-2-one] | > 1000
N#Cc1ccc(-c2nc3ccc(-c4ccccc4)cn3c2CN2CCNC(=O)C2)cc1 [Example 33, 4-(3-((3-oxopiperazin-1-yl)methyl)-6-phenylimidazo[1,2-a]pyridin-2-yl)benzonitrile] | > 1000
CN1CCCN(Cc2c(-c3ccc(C#N)cc3)nc3ccc(-c4ccccc4)cn23)CC1 [Example 34, 4-(3-((4-methyl-1,4-diazepan-1-yl)methyl)-6-phenylimidazo[1,2-a]pyridin-2-yl)benzonitrile] | < 500
N#Cc1ccc(-c2nc3ccc(-c4ccccc4)cn3c2CN2CCNC(=O)C2)s1 [Example 35, 5-(3-((3-oxopiperazin-1-yl)methyl)-6-phenylimidazo[1,2-a]pyridin-2-yl)thiophene-2-carbonitrile] | > 1000
CN1CCCN(Cc2c(-c3ccc(C#N)s3)nc3ccc(-c4ccccc4)cn23)CC1 [Example 36, 5-(3-((4-methyl-1,4-diazepan-1-yl)methyl)-6-phenylimidazo[1,2-a]pyridin-2-yl)thiophene-2-carbonitrile] | < 500
N#Cc1ccc(-c2nc3ccc(-c4cn[nH]c4)cn3c2CN2CCCNCC2)cc1 [Example 37, 4-(3-((1,4-diazepan-1-yl)methyl)-6-(1H-pyrazol-4-yl)imidazo[1,2-a]pyridin-2-yl)benzonitrile] | > 1000
Cn1cccc1-c1ccc2nc(-c3ccc(C#N)cc3)c(CN3CCCNCC3)n2c1 [Example 38, 4-(3-((1,4-diazepan-1-yl)methyl)-6-(1-methyl-1H-pyrrol-2-yl)imidazo[1,2-a]pyridin-2-yl)benzonitrile] | 500 to 1000
N#Cc1ccc(-c2nc3ccc(-c4cnco4)cn3c2CN2CCCNCC2)cc1 [Example 39, 4-(3-((1,4-diazepan-1-yl)methyl)-6-(oxazol-5-yl)imidazo[1,2-a]pyridin-2-yl)benzonitrile] | > 1000
N#Cc1ccc(-c2nc3ccc(-c4ccc(Cl)cc4)cn3c2CN2CCCNCC2)cc1 [Example 40, 4-(3-((1,4-diazepan-1-yl)methyl)-6-(4-chlorophenyl)imidazo[1,2-a]pyridin-2-yl)benzonitrile] | < 500
COc1ccc(-c2ccc3nc(-c4ccc(C#N)cc4)c(CN4CCCNCC4)n3c2)cc1 [Example 41, 4-(3-((1,4-diazepan-1-yl)methyl)-6-(4-methoxyphenyl)imidazo[1,2-a]pyridin-2-yl)benzonitrile] | < 500
N#Cc1ccc(-c2nc3ccc(-c4ccc(C(N)=O)cc4)cn3c2CN2CCCNCC2)cc1 [Example 42, 4-(3-((1,4-diazepan-1-yl)methyl)-2-(4-cyanophenyl)imidazo[1,2-a]pyridin-6-yl)benzamide] | > 1000
N#Cc1ccc(-c2ccc3nc(-c4ccc(C#N)cc4)c(CN4CCCNCC4)n3c2)cc1 [Example 43, 4,4′-(3-((1,4-diazepan-1-yl)methyl)imidazo[1,2-a]pyridine-2,6-diyl)dibenzonitrile] | < 500
N#Cc1ccc(-c2nc3ccc(-c4ccsc4)cn3c2CN2CCCNCC2)cc1 [Example 44, 4-(3-((1,4-diazepan-1-yl)methyl)-6-(thiophen-3-yl)imidazo[1,2-a]pyridin-2-yl)benzonitrile] | < 500
